Test results as given in PubChem BioAssay AID1963841 (Molecular Pharmacology Branch, DTP, NCI, 2024).

Tested on: 439559-082-T-J2-PDC spheroid viability
Test: Anticancer human tumor 439559-082-T-J2-PDC patient-derived colon adenocarcinoma cell line growth inhibition [POLQ]
Details: spheroids with HUVEC and MSC; for IC50: curve of first compound; for viability, T/C: stronger effect = lower value
Method in brief: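 Complex spheroid viability model combining PDC tumour cells with endothelial (HUVEC) and MSC stromal cells. Novobiocin, ART-558 or RP6685 were tested singly and in combination with standard and investigational anticancer drugs. Each was titrated in half-log steps from near clinical Cmax, or from 10 microM where Cmax was unknown.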
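Further: spheroids exposed to compounds for seven days before readout.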
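Wherever viability, T/C is given: 100% = DMSO vehicle control viability.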

## CC1COCCN1c1cc(-c2ccnn2C)c2ccnc(-c3ccn[nH]3)c2n1 (configuration not stated) + COC1C(OC(N)=O)C(O)C(Oc2ccc3c(O)c(NC(=O)c4ccc(O)c(CC=C(C)C)c4)c(=O)oc3c2C)OC1(C)C
Second compound 0.0316 µM
  IC50: 257 nM
Second compound 0.1 µM
  IC50: 299 nM
Second compound 0.316 µM
  IC50: 353 nM
Second compound 1 µM
  IC50: 274 nM
Second compound 3.16 µM
  IC50: 276 nM
Second compound 10 µM
  IC50: 298 nM
Second compound 0.0316 µM, first compound 0.0316 µM
  viability, T/C: 85.6%
Second compound 0.0316 µM, first compound 0.1 µM
  viability, T/C: 66.5%
Second compound 0.0316 µM, first compound 0.316 µM
  viability, T/C: 44.7%
Second compound 0.0316 µM, first compound 1 µM
  viability, T/C: 42%
Second compound 0.0316 µM, first compound 3.16 µM
  viability, T/C: 23.3%
Second compound 0.0316 µM, first compound 10 µM
  viability, T/C: 37%
Second compound 0.1 µM, first compound 0.0316 µM
  viability, T/C: 82.8%
Second compound 0.1 µM, first compound 0.1 µM
  viability, T/C: 75.4%
Second compound 0.1 µM, first compound 0.316 µM
  viability, T/C: 47.4%
Second compound 0.1 µM, first compound 1 µM
  viability, T/C: 41.3%
Second compound 0.1 µM, first compound 3.16 µM
  viability, T/C: 27%
Second compound 0.1 µM, first compound 10 µM
  viability, T/C: 38.9%
Second compound 0.316 µM, first compound 0.0316 µM
  viability, T/C: 92.5%
Second compound 0.316 µM, first compound 0.1 µM
  viability, T/C: 77.4%
Second compound 0.316 µM, first compound 0.316 µM
  viability, T/C: 49.5%
Second compound 0.316 µM, first compound 1 µM
  viability, T/C: 43.1%
Second compound 0.316 µM, first compound 3.16 µM
  viability, T/C: 25.2%
Second compound 0.316 µM, first compound 10 µM
  viability, T/C: 39.4%
Second compound 1 µM, first compound 0.0316 µM
  viability, T/C: 92.1%
Second compound 1 µM, first compound 0.1 µM
  viability, T/C: 75.2%
Second compound 1 µM, first compound 0.316 µM
  viability, T/C: 44.9%
Second compound 1 µM, first compound 1 µM
  viability, T/C: 41.9%
Second compound 1 µM, first compound 3.16 µM
  viability, T/C: 24.2%
Second compound 1 µM, first compound 10 µM
  viability, T/C: 39.7%
Second compound 3.16 µM, first compound 0.0316 µM
  viability, T/C: 94.3%
Second compound 3.16 µM, first compound 0.1 µM
  viability, T/C: 72.1%
Second compound 3.16 µM, first compound 0.316 µM
  viability, T/C: 45.1%
Second compound 3.16 µM, first compound 1 µM
  viability, T/C: 42.4%
Second compound 3.16 µM, first compound 3.16 µM
  viability, T/C: 25.2%
Second compound 3.16 µM, first compound 10 µM
  viability, T/C: 37.7%
Second compound 10 µM, first compound 0.0316 µM
  viability, T/C: 88%
Second compound 10 µM, first compound 0.1 µM
  viability, T/C: 78.5%
Second compound 10 µM, first compound 0.316 µM
  viability, T/C: 46.4%
Second compound 10 µM, first compound 1 µM
  viability, T/C: 42.9%
Second compound 10 µM, first compound 3.16 µM
  viability, T/C: 25.4%
Second compound 10 µM, first compound 10 µM
  viability, T/C: 37.2%
